Read-outs that look alike come from different tables or passages of the source.

The nature of series [1]: Midazolam pharmacokinetics. Format: in vivo, human.
The conditions of series [2]: cited from earlier work.
Series [3] concerns organic anion transporting polypeptides (OATPs). The conditions noted are these: in vitro; cited from earlier work.
For series [4] the following is noted: cited from earlier work. The source holds these as a separate data set.
Series [5] is described as follows: Literature clinical pharmacokinetics of sunitinib. The conditions noted are these: follows from half-life ~50 h.
For series [6] the following is noted: cited from earlier work. The source holds these as a separate data set.
A further series concerns ABCG2. The conditions noted are these: in vitro; cited from earlier work.
A further series has as its system ABCB1. The following applies: in vitro; cited from earlier work.
The format of series [7] is in vivo, human. The following applies: for Increase of sunitinib exposure by grapefruit juice: model estimate; for AUC(0-t): AUC0–24 h.
The mark [8] stands for this setting: final population PK model, cancer patients.
The mark [9] stands for this setting: human, plasma, oral, sunitinib with grapefruit juice when simultaneously taken, mean (range).
[10] abbreviates: sunitinib with grapefruit juice when simultaneously taken, mean (range).

As usually defined, the AUC(0-t) is the area under the concentration-time curve up to a stated or last time point. `Cc1ncc2n1-c1ccc(Cl)cc1C(c1ccccc1F)=NC2` [midazolam] gave an AUC(0-t) in [1] (human, plasma, po, 7.5 mg, Midazolam AUC0–24 h, without GJ, single oral 7.5 mg midazolam, mean (±SEM)) of 0.122 µg·h/mL. The “Increase of midazolam exposure (AUC0–24 h) by GJ” value in [1] (second vs first PK day) is listed as ~ 50%.
Turning to `Cc1cn(-c2cc(NC(=O)c3ccc(C)c(Nc4nccc(-c5cccnc5)n4)c3)cc(C(F)(F)F)c2)cn1` [nilotinib], in series [2], the “Effect of grapefruit juice on drug exposure” value was “increase”.
By half-life is commonly meant the time needed for the level to fall by half in the phase considered. Broadly, the Tmax is the time from dosing to the highest level. Broadly, the Vd/F is the apparent distribution volume after extravascular dosing. What is called Cmax is the highest concentration seen after dosing. As for `CCN(CC)CCNC(=O)c1c(C)[nH]c(/C=C2\C(=O)Nc3ccc(F)cc32)c1C` [sunitinib, Sunitinib malate], the “Affinity for OATPs” value in series [3] was “no affinity”. Besides, in [4], the “Protein binding in vitro” value is “extensively protein bound”. For the same compound, the “Time to reach steady-state PK” value in series [5] is reported as ~ 8 days. In series [6], the “Apparent volume of distribution” value is on record as ~ 2,000 liters, the “Effect of food intake on pharmacokinetics” value is listed as “does not affect”, the “Interpatient variability in sunitinib clearance” value is ~ 40% and the half-life is given as ~ 50 h. Further, the “Substrate of drug transporter ABCG2” value with ABCG2 is recorded as “moderate substrate”. In the series on ABCB1, the “Substrate of drug transporter ABCB1” value is “moderate substrate”. The “Increase of sunitinib exposure by grapefruit juice” value (from here on “Increase of sunitinib exposure”) in series [7] (GJ consumed 7 h before the sunitinib dose) is ~ 8.9%. Moreover, in series [7] (setting [8]), the “Absorption lag time, estimate” value was 0.487 h and the “ka (absorption rate constant), estimate” value is 0.468 h⁻¹. For the same compound, in series [7] (final population PK model, cancer patients, oral sunitinib 25-50 mg once daily), the “Cl/F (apparent clearance), estimate” value was 50.5 L/h. For the same compound, in series [7] (human, plasma, oral), the time of peak concentration (Tmax) worked out at 8.2 h, the Vd/F amounted to 3210 L and the half-life is 53 h. In series [7] (setting [9]), this compound yielded an AUC(0-t) of 1.25 µg·h/mL and a Cmax of 0.0144 µg/mL. This compound registered an AUC(0-t) in [7] (human, plasma, oral, sunitinib without grapefruit juice, steady state, mean (range)) of 1.12 µg·h/mL. In series [7] (human, plasma, oral, sunitinib without grapefruit juice, mean (range)), this compound displayed a maximum concentration (Cmax) of 0.013 µg/mL. For the same compound, the “Increase of sunitinib exposure” value in series [7] (sunitinib 24 h after last GJ consumption) is on record as ~ 5.3%. Also, the “Increase of sunitinib exposure” value in series [7] (sunitinib 72 h after last GJ consumption) is ~ 1.3%. Further, in series [7] (sunitinib started 1 week after last GJ consumption), the “Increase of sunitinib exposure” value is ~ 0.07%. In addition, in series [7] (setting [10]), the T max is 8.2 (2.8–12.4) h and the “t 1/2 (elimination half-life)” value is on record as 53 (12–107) h.

Values taken from publication PMC3043256 (Cancer Chemotherapy and Pharmacology, 2010).
